Legend:
[1] = test system: brain-endothelial and macrophage NOS; details: cited from earlier work
[2] = test system: brain NOS; test: brain NOS activity in cerebellar homogenates after i.p. administration; type: in vivo, rat (Sprague-Dawley)
Experimental: Adult male rats (Sprague-Dawley, 3 per group) were injected intraperitoneally (i.p.) twice daily with 5 mg/kg or 50 mg/kg of NO2 Arg, MeArg, arginine or vehicle twice a day for four consecutive days. The animals were sacrificed by decapitation 14 hours following the last injection.
Cerebellar homogenates were used to determine NOS activity.

[3] = molecular target: brain NOS (cerebellar NOS) (Rattus norvegicus, UniProt P29476); test: inhibition of NOS activity, conversion of [^3 H]arginine to [^3 H]citrulline, cerebellar homogenates/supernatants in vitro
brain NOS (cerebellar NOS), sequence (P29476 whole entry): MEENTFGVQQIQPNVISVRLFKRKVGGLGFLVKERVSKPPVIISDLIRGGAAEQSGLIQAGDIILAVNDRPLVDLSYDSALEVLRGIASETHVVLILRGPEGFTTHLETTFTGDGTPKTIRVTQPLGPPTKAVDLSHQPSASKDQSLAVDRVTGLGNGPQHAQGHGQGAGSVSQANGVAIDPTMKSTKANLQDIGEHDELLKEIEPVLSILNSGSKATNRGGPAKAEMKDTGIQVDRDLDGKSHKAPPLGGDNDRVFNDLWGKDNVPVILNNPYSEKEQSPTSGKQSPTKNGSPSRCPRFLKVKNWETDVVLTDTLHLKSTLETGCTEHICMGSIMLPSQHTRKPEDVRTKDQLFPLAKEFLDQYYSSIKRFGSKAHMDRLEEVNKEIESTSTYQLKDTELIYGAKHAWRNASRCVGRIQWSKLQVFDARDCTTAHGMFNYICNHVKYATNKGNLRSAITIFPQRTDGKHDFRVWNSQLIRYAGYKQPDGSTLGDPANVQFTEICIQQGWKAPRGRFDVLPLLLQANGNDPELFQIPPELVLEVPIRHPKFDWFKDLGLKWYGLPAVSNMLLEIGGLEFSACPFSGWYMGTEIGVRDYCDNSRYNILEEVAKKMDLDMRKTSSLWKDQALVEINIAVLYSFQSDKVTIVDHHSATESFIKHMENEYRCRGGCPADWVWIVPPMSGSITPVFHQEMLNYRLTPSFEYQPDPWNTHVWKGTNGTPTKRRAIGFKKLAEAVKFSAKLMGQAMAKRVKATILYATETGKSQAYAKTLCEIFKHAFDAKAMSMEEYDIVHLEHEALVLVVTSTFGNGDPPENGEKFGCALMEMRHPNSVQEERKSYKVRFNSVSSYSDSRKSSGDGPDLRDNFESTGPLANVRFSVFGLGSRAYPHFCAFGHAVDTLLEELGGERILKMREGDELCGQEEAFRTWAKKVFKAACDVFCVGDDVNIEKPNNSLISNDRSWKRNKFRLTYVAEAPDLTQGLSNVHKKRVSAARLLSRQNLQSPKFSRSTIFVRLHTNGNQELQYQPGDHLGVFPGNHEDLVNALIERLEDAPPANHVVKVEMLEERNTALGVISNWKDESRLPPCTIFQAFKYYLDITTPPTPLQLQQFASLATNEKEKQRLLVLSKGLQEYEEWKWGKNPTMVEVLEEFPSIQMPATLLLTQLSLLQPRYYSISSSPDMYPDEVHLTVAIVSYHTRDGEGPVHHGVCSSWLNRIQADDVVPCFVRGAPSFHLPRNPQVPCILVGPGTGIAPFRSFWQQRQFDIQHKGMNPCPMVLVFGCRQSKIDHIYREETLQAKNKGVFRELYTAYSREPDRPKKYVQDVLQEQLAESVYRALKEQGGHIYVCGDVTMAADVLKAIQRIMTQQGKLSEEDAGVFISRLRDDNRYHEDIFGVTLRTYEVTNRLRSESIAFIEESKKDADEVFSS
Source text: (§1) Inhibitors of NOS are compounds which compete for the substrate binding site of NOS or other sites on the enzyme, and include both reversible and irreversible inhibitors. The present invention contemplates the use of any physiologically acceptable inhibitor which inhibits NOS activity. The effectiveness of a compound, and its relative potency as an NOS inhibitor, can be tested and routinely determined by measuring inhibition of NOS activity by monitoring the conversion of arginine to citrulline by NOS in, for example, cerebellar homogenates. A reduction in citrulline formation indicates inhibitory activity of the compound. The percent reduction in citrulline formation, compared to the amount of citrulline formed in the absence of the compound being tested, indicates the potency of the compound as an NOS inhibitor.
Rat cerebella were homogenized in 10 vols. (w/v) […] Tris (pH 7.4), 2 mM EDTA. Homogenates were centrifuged at 10,000×g for 15 minutes at 4° C. Supernatant preparations were used in the enzyme assays. Cerebellar tissue was dialyzed (Spectra/Por, 10,000 MWCO, EDTA-treated cellulose dialysis tubing) against 20 mM Tris (pH 7.4), 2 mM EDTA (300 ml×2) for 24 hours at 4° C.
Cerebellar homogenates were incubated with arginine derivatives for one hour at 4° C., and dialyzed overnight. Aliquots (25 μg protein) were assayed for NOS activity before and after dialysis.
(§2) NOS activity was measured by monitoring the conversion of [^3 H]arginine to [^3 H]citrulline as described by Bredt and Snyder (Proc. Natl. Acad. Sci USA (1990) 87682-685). Briefly, enzyme assays contained 25 μl of soluble tissue, 50 μl of […] [^3 H]arginine and 1 mM NADPH, and 25 μl of 3 mM CaCl2. After a 15 minute incubation at room temperature, the assays were terminated with 3 ml of 20 mM Hepes (pH 5.5) with 2 mM EDTA, and were applied to 0.5 ml columns of Dowex AG50WX8 (Na^+ form). [^3 H]citrulline was quantified by liquid scintillation spectroscopy of the 3 ml flow-through.
(§3) Accordingly, the effects of 2, 4 and 24 hours of preincubations of cerebellar supernatants (FIG. 2A) and activated macrophage homogenates (FIG. 2B) with NO2 Arg were examined. The preincubation was conducted at 4° C. since NOS is unstable at higher temperature for long periods of time. Enzymatic incubation was conducted for only 5 minutes to minimize any reaction of the inhibitor with the enzyme in the course of the incubation procedure.
Cerebellar supernatants were made as described in Example 1.

[4] = molecular target: NOS; details: cited from earlier work
[5] = test system: NOS protein; test: Western blot of NOS protein in brain extracts after i.p. administration; type: in vivo, rat; details: i.p. administration of 5 and 50 mg/kg
Experimental: To determine whether NO2 Arg administration alters levels of NOS protein, Western blot analysis of brain extracts were performed following the i.p. administration of both 5 and 50 mg/kg of NO2 Arg. Soluble cerebellar homogenates (100 μg) were separated on a 7.5% SDS-polyacrylamide gel and transferred to nitrocellulose. Lanes were incubated overnight with affinity purified NOS antibody (1:2500) at room temperature, and bands were visualized with an alkaline phosphatase linked secondary antibody. […] Therefore, the loss of NOS activity following peripheral administration of NO2 Arg is not attributed to inhibition of the synthesis of enzyme protein.

[6] = test system: brain or macrophage enzyme (NOS); test: NOS inhibition and brain/macrophage selectivity of arginine, nitroarginine and guanidinoalkanoic acid analogs; type: biochemical
[7] = test system: macrophage NOS (activated macrophage homogenates); test: inhibition of NOS activity in activated macrophage homogenates in vitro; type: biochemical
Source text: as §1, §2, §3
Macrophages were activated as described by Tayeh and Marletta (J. Biol. Chem. (1989) 264:19654-19658) with 3.5 ng/ml LPS from E. coli and 5 units/ml recombinant murine γ-interferon for 24 hours at 37° C. Cells were homogenized in 20 mM Hepes (pH 7.4).

[8] = test system: cGMP formation; test: cGMP formation in cortical cell cultures (RIA); type: cell-based, rat; details: 300 μM NMDA (plus 10 μM glycine), 1 minute; 100 μM NO2 Arg, 1 mM L-Arg, 100 units of SOD, 500 μM Hb
Experimental: Primary dissociated cell cultures were prepared from fetal rats (13-to 14-day gestation for cortex and caudate-putamen cultures and 19- to 20-day gestation for hippocampal cultures). […] Dissociated cells were plated at a density of 3-4×10^5 cells per well in polyornithine-coated 15-mm multiwell plates. After 4 days the cells were treated with 10 μg of 5-fluoro-2'-deoxyuridine to prevent proliferations of noneuronal cells. Cells were maintained in MEM/5% horse serum/2 mM glutamine in 8% CO2 /humidified atmosphere at 37° C. The medium was changed twice weekly. Mature neurons (3-4 weeks) were used.
For determination of cGMP the cells were washed three times with CSS. […] After ether extraction, cGMP levels were determined by RIA.
Data are means ±SEM (n=6-8).
Data are means ±SEM (n=8-12).

N=C(NCCC[C@H](N)C(=O)O)N[N+](=O)[O-] [NO2 Arg, L-N^ω -nitroarginine]
inhibition of brain-endothelial versus macrophage enzyme ([1]; Gross et al. (1990)): weaker inhibitor of the macrophage enzyme | greater potency in inhibiting brain-endothelial than macrophage NOS ([1]; incubations at 37° C. for about 1/2 hour, 30 min): 10-300 fold | inhibition of brain NOS ([2]; 5 mg/kg i.p. twice daily, four consecutive days, 14 hours after last injection): about 50% | inhibition of enzyme activity in the brain after peripheral administration ([2]; 5 mg/kg, peripheral administration): markedly inhibits enzyme activity in the brain | inhibition of brain NOS enzyme activity ([2]; 50 mg/kg i.p. twice daily, four consecutive days, 14 hours after last injection): 95% | inhibition of NOS activity, repeated administration for 7 days versus 4 days ([2]; 7 days): no greater inhibition of NOS activity than 4 days of treatment | nature of inhibition of NOS in vivo ([2]; FIG. 3, before and after dialysis): irreversible inhibition | effect of dialysis on enzyme activity ([2]; crude supernatant from treated animals dialyzed for 24 hours): only slightly increases enzyme activity | time for which brain NOS activity does not return to normal levels ([2]; following 90% inhibition with 50 mg/kg): at least 5 days | reduction of enzyme activity ([2]; single injection of 50 mg/kg): 50% | effect of preincubation on potency of inhibition ([3]; 2 hour preincubation at 4° C., FIG. 2A): increases the potency of inhibition | nature of inhibition of cerebellar NOS in vitro ([3]; FIG. 1, before and after dialysis): irreversible inhibition | relative potency as inhibitor of NOS activity ([3]; cerebellar supernatant preparations, FIG. 1): more potent inhibitor of NOS activity than MeArg | augmentation of potency by preincubation ([3]; preincubation for 24 hours at 4° C.): about 15 times | Ki ([4]; Dwyer et al. (1991), read-out: Ki, inhibition of NOS activity of purified enzyme preparations): 200 nM | mode of inhibition of NOS ([4]; Moore (1990)): competitive inhibitor of NOS | alterations in NOS protein [5]: No alterations in NOS protein were observed | inhibition potency among nitroarginine analogs [6]: most potent inhibitor | potency in inhibiting the macrophage enzyme compared to the cerebellar enzyme ([7]; 24 hours of incubation): about 7% | enhancement of potency after preincubation ([7]; preincubation with the enzyme, 24 hours, FIG. 2B): only a minimal enhancement of potency | potency as NOS inhibitor relative to cerebellar preparations ([7]; supernatant preparations of activated macrophage cultures, FIG. 2B): less potent inhibitor of NOS than in cerebellar preparations | effect on NMDA stimulation of cGMP formation [8]: antagonized

From patent US5266594A, “Inhibitors of nitric oxide synthase and use thereof to prevent glutamate neurotoxicity” (priority 1992, dated 1993)
